How the values were obtained:
Type in all cases: cell-based
[1] = tested on: B16F10 (malignant melanoma); assay: Antiproliferative activity (CCK-8 cell viability), B16F10; conditions: Mus musculus, 72 h; for inhibition at 3.3 µM: B16-F10, Compound concentration: 3.3 μM; for inhibition at 3.3 µM / inhibition at 10 µM: read-out: Antiproliferative activity in cancerous cells, B16F10 (inhibition of cell growth); for inhibition at 10 µM: B16-F10, Compound concentration: 10 μM
Summary of the method: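 Attached B16F10 cells in 96-well plates were incubated with compound at 37° C for 72 h, followed by 10 μL CCK-8 reagent per well and a further 4 h incubation. A multi-well plate reader measured absorbance at 450 nm. Percent viability across replicates was calculated against DMSO vehicle-treated cells.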

[2] = tested on: A549 (lung adenocarcinoma); assay: Antiproliferative activity (CCK-8 cell viability), A549; conditions: Homo sapiens, 72 h, read-out: Antiproliferative activity in cancerous cells, A549 (inhibition of cell growth); for inhibition at 3.3 µM: Compound concentration: 3.3 μM; for inhibition at 10 µM: Compound concentration: 10 μM
Summary of the method: (§1)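 Cells were seeded at 2,000-5,000/well (HeLa in MEM, HepG2 and SW480 in DMEM, A549 in F-12K, all with 10% FBS) and treated with compound at 3.3, 10 or 30 μM for 72 h at 37° C. CCK-8 was added for 4 h, absorbance was read at 450 nm, and viability was expressed relative to DMSO-treated wells.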

[3] = tested on: A431 (epidermoid carcinoma); assay: Antiproliferative activity (CCK-8 cell viability), A431; conditions: Homo sapiens, 72 h; for inhibition at 3.3 µM: A-431, Compound concentration: 3.3 μM; for inhibition at 3.3 µM / inhibition at 10 µM: read-out: Antiproliferative activity in cancerous cells, A431 (inhibition of cell growth); for inhibition at 10 µM: A-431, Compound concentration: 10 μM
Summary of the method: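 Cell viability of compound-treated A431 cells was measured with a Cell Counting Kit-8. Each well received 10 μL of CCK-8 after 72 h of compound exposure, followed by 4 h incubation at 37° C. and a 450 nm plate-reader measurement. Percent viability was calculated relative to DMSO controls across replicates.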

[4] = tested on: MDA-MB-231 (breast cancer); assay: Antiproliferative activity (CCK-8 cell viability), MDA-MB-231; conditions: Homo sapiens, 72 h, read-out: Antiproliferative activity in cancerous cells, MDA-MB-231 (inhibition of cell growth); for inhibition at 3.3 µM: Compound concentration: 3.3 μM; for inhibition at 10 µM: Compound concentration: 10 μM
Summary of the method: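 In this CCK-8 viability assay, MDA-MB-231 cells maintained in Dulbecco's modified Eagle's medium containing 10% fetal bovine serum were placed in 96-well plates (2,000-5,000 cells/well) and treated with compound for 72 h at 37° C. A 4 h incubation with 10 μL CCK-8 followed, plates were read at 450 nm, and viability was expressed against DMSO vehicle wells across replicates.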

HepG2 (liver cancer) = assay: Antiproliferative activity (CCK-8 cell viability), HepG2; conditions: Homo sapiens, 72 h, read-out: Antiproliferative activity in cancerous cells, HepG2 (inhibition of cell growth); for inhibition at 3.3 µM: Compound concentration: 3.3 μM; for inhibition at 10 µM: Compound concentration: 10 μM
Summary of the method: as §1

SW480 (colon cancer) = assay: Antiproliferative activity (CCK-8 cell viability), SW480; conditions: Homo sapiens, 72 h, read-out: Antiproliferative activity in cancerous cells, SW480 (inhibition of cell growth); for inhibition at 3.3 µM: Compound concentration: 3.3 μM; for inhibition at 10 µM: Compound concentration: 10 μM
Summary of the method: as §1

[5] = tested on: alpha-smooth muscle actin (α-SMA); assay: Inhibition of TGF-β induced expression of alpha-smooth muscle actin (α-SMA) in CFSC cells (western blot); conditions: compound at 10 μM, TGF-β (10 ng/mL), 24 hours, band intensity vs TGF-β only
Protocol: The ability of a compound to inhabit the TGF-β induced expression of alpha-smooth muscle actin (α-SMA) was evaluated in CCl4-treated fat storing (CFSC) cells. α-SMA is considered as a reliable marker of hepatic stellate cell activation and a key biomarker for liver fibrosis.
CFSC cells maintained in a DMEM medium supplemented with 10% fetal bovine serum were seeded to 12-well culture dishes and grown to a confluence of 60-70% the next day. Culture was changed to a serum-free DMEM medium, and the cells were treated with a compound at 10 μM in the presence of TGF-β (10 ng/mL). The cells were incubated for another 24 hours. All culture was maintained at 37° C. in 5% carbon dioxide.
An NP-40 lysate solution (50 mM Tris (pH 7.4), 150 mM NaCl, 1% NP-40) with EDTA free cocktail added was used to lyse the cells on ice for 30 min. The lysate was collected and centrifuged at 4° C. for 10 min at 12,000 rpm. The pellet was discarded and the supernatant was transferred to a new tube. Cell lysates were loaded with 5× loading buffer and boiled for 10 min, resolved by 10% SDS-polyacrylamide gel electrophoresis (SDS-PAGE), and transferred to PVDF membrane. The membrane was blocked with 5% skim milk in Tris-buffered saline and TWEEN® 20 (TBST; 10 mM Tris-HCl (pH 8.0), 150 mM NaCl, 0.1% TWEEN® 20) for 1 h at room temperature and then incubated with α-SMA and β-actin antibodies overnight at 4° C. After washing twice with TBST, the membrane was probed with a horseradish […] anti-immunoglobulin (1:5000 dilution) for 1 h at room temperature. After two subsequent rinses in TBST, immunoreactive products were reacted with ECL and visualized by a UVP CHEMSTUDIO™ imaging system. The western blotting bands are quantitated using an ImageJ software. The percentage of inhibition was obtained by calculating the percentage decrease in the band intensity compared to the one treated with TGF-β only.
The results are summarized in Table 1, where A represents a value no less of 80% inhibition, B represents a value less than […] but no less than […], C represents a value less than 50% but no less than 30% inhibition, and D represents a value less than 30% inhibition with a compound at 10 μM.

HeLa (cervical cancer) = assay: Antiproliferative activity (CCK-8 cell viability), HeLa; conditions: Homo sapiens, 72 h, read-out: Antiproliferative activity in cancerous cells, HELA (inhibition of cell growth); for inhibition at 3.3 µM: Compound concentration: 3.3 μM; for inhibition at 10 µM: Compound concentration: 10 μM
Summary of the method: as §1

| Structure (SMILES) | inhibition at 3.3 µM [1] | inhibition at 10 µM [1] | inhibition at 3.3 µM [2] | inhibition at 10 µM [2] | inhibition at 3.3 µM [3] | inhibition at 10 µM [3] | inhibition at 3.3 µM [4] | inhibition at 10 µM [4] | inhibition at 3.3 µM (HepG2 (liver cancer)) | inhibition at 10 µM (HepG2 (liver cancer)) | inhibition at 3.3 µM (SW480 (colon cancer)) | inhibition at 10 µM (SW480 (colon cancer)) | inhibition at 10 µM [5] | inhibition at 3.3 µM (HeLa (cervical cancer)) | inhibition at 10 µM (HeLa (cervical cancer)) | inhibition at 30 µM ([1]; B16-F10, Compound concentration: 30 μM, read-out: Antiproliferative activity in cancerous cells, B16F10) | inhibition at 30 µM ([3]; A-431, Compound concentration: 30 μM, read-out: Antiproliferative activity in cancerous cells, A431) |
| --- | --- | --- | --- | --- | --- | --- | --- | --- | --- | --- | --- | --- | --- | --- | --- | --- | --- |
| O=C(O)CC1=C(Cc2ccc(Oc3ccc(F)cc3)cc2)/C(=C/c2ccc(F)cc2)c2ccc(F)cc21 [A105, (Z)-2-(5-Fluoro-1-(4-fluorobenzylidene)-2-(4-(4-fluorophenoxy)benzyl)-1H-inden-3-yl)acetic acid] | ≥ 50% | ≥ 50% | ≥ 50% | ≥ 50% | ≥ 50% | ≥ 50% | ≥ 50% | ≥ 50% | ≥ 50% | ≥ 50% | ≥ 50% | ≥ 50% | > 80% | ≥ 50% | ≥ 50% |  |  |
| O=C(O)CC1=C(Cc2ccc(Oc3ccc(F)cc3)cc2)/C(=C/C2CC2)c2ccc(F)cc21 [A106, (Z)-2-(1-(Cyclopropylmethylene)-5-fluoro-2-(4-(4-fluorophenoxy)benzyl)-1H-inden-3-yl)acetic acid] | 30 to 50% | ≥ 50% | 30 to 50% | ≥ 50% | < 30% | ≥ 50% | < 30% | ≥ 50% | < 30% | ≥ 50% | < 30% | ≥ 50% | > 80% | 30 to 50% | ≥ 50% |  |  |
| O=C(O)CC1=C(Cc2ccc(Oc3ccc(F)cc3)cc2)/C(=C/c2ccc(C(F)(F)F)cc2)c2ccc(F)cc21 [A108, (Z)-2-(5-Fluoro-2-(4-(4-fluorophenoxy)benzyl)-1-(4-(trifluoromethyl)-benzylidene)-1H-inden-3-yl)acetic acid] | ≥ 50% | ≥ 50% | ≥ 50% | ≥ 50% | ≥ 50% | ≥ 50% | ≥ 50% | ≥ 50% | < 30% | < 30% | < 30% | ≥ 50% | > 80% | < 30% | ≥ 50% |  |  |
| O=C(O)CC1=C(Cc2ccc(Oc3ccc(F)cc3)cc2)/C(=C/c2cccc(C(F)(F)F)c2)c2ccc(F)cc21 [A109, (Z)-2-(5-Fluoro-2-(4-(4-fluorophenoxy)benzyl)-1-(3-(trifluoromethyl)-benzylidene)-1H-inden-3-yl)acetic acid] | < 30% | ≥ 50% | ≥ 50% | ≥ 50% | 30 to 50% | ≥ 50% | ≥ 50% | ≥ 50% | < 30% | < 30% | < 30% | < 30% | > 80% | < 30% | ≥ 50% |  |  |
| COc1ccc(/C=C2/C(Cc3ccc(Oc4ccc(F)cc4)cc3)=C(CC(=O)O)c3cc(F)ccc32)cc1 [A110, (Z)-2-(5-Fluoro-2-(4-(4-fluorophenoxy)benzyl)-1-(4-methoxybenzylidene)-1H-inden-3-yl)acetic acid] | < 30% | ≥ 50% | < 30% | ≥ 50% | < 30% | ≥ 50% | ≥ 50% | ≥ 50% | < 30% | < 30% | < 30% | ≥ 50% | > 80% | < 30% | ≥ 50% |  |  |
| O=C(O)CC1=C(Cc2ccc(Oc3ccc(F)cc3)cc2)/C(=C/c2ccc(CN3CCOCC3)cc2)c2ccc(F)cc21 [A113, (Z)-2-(5-Fluoro-2-(4-(4-fluorophenoxy)benzyl)-1-(4-(morpholinomethyl)-benzylidene)-1H-inden-3-yl)acetic acid] | < 30% | < 30% | 30 to 50% | 30 to 50% | < 30% | < 30% | ≥ 50% | ≥ 50% | ≥ 50% | ≥ 50% | ≥ 50% | ≥ 50% | > 80% | ≥ 50% | ≥ 50% | < 30% | < 30% |
| CC1=C(CCO)c2cc(F)ccc2/C1=C\c1ccc(Oc2ccc(F)cc2)cc1 [A201, (Z)-2-(5-Fluoro-1-(4-(4-fluorophenoxy)benzylidene)-2-methyl-1H-inden-3-yl)-ethan-1-ol] | < 30% | ≥ 50% | 30 to 50% | ≥ 50% | ≥ 50% | ≥ 50% | 30 to 50% | ≥ 50% | ≥ 50% | ≥ 50% | ≥ 50% | ≥ 50% | < 30% | 30 to 50% | ≥ 50% |  |  |
